According to ChEMBL document CHEMBL1136657, “Novel ether derivatives of mannopeptimycin glycopeptide antibiotic” (2003):
In brackets after ≈: the same amount, converted by molar mass. One block for each compound: values may come before it.

Legend:
[1] = system: Streptococcus pneumoniae; assay: Minimum inhibitory concentration against Streptococcus pneumoniae (GC 1894) was determined; type: functional
[2] = system: Streptococcus pyogenes; assay: Minimum inhibitory concentration against Streptococcus pyogenes (GC 4563) was determined; type: functional
[3] = system: Enterococcus faecium; assay: Minimum inhibitory concentration against Enterococcus faecium (GC 2243) was determined; type: functional
[4] = system: Enterococcus faecalis; assay: Minimum inhibitory concentration against Enterococcus faecalis (GC 4552) was determined; type: functional
[5] = system: Candida albicans; assay: Minimum inhibitory concentration against Candida albicans GC 3066 was determined; type: functional
[6] = system: Enterococcus faecalis; assay: Minimum inhibitory concentration against Enterococcus faecalis (GC 4553) was determined; type: functional
[7] = system: Pseudomonas aeruginosa; assay: Minimum inhibitory concentration against Pseudomonas aeruginosa (GC 2214) control was determined; type: functional
[8] = system: Staphylococcus aureus; assay: Minimum inhibitory concentration against Staphylococcus aureus (GC 4542) was determined; type: functional
[9] = Minimum inhibitory concentration against SCN (GC 4548) was determined; type: functional
[10] = system: Escherichia coli; assay: Minimum inhibitory concentration against Escherichia coli (GC 4560) was determined; type: functional
[11] = system: Staphylococcus aureus; assay: Minimum inhibitory concentration against Staphylococcus aureus (GC 4543) was determined; type: functional
[12] = system: Staphylococcus aureus; assay: Minimum inhibitory concentration against Staphylococcus aureus (GC 4545) was determined; type: functional
[13] = system: Escherichia coli; assay: Minimum inhibitory concentration against Escherichia coli (GC 4564) was determined; type: functional
[14] = system: Staphylococcus aureus; assay: Minimum inhibitory concentration against Staphylococcus aureus (GC 3066) was determined; type: functional
[15] = system: Escherichia coli; assay: Minimum inhibitory concentration against Escherichia coli (GC 2203) was determined; type: functional
[16] = Minimum inhibitory concentration against SCN (GC 6257) was determined; type: functional
[17] = Minimum inhibitory concentration against SCN (GC 4551) was determined; type: functional
[18] = system: Morganella morganii; assay: Minimum inhibitory concentration against Morganella morganii (GC 4381) was determined; type: functional
[19] = Minimum inhibitory concentration against SCN (GC 4547) was determined; type: functional
[20] = system: Micrococcus luteus; assay: Minimum inhibitory concentration against Sarcina lutea (GC 4562) was determined; type: functional
[21] = system: Bacillus cereus; assay: Minimum inhibitory concentration against Bacillus cereus (GC 4561) was determined; type: functional
[22] = system: Enterococcus avium; assay: Minimum inhibitory concentration against Enterococcus avium (GC 4558) was determined; type: functional
[23] = system: Staphylococcus aureus; assay: Minimum inhibitory concentration against Staphylococcus aureus (GC 4544) was determined; type: functional
[24] = Minimum inhibitory concentration against SCN (GC 4549) was determined; type: functional
[25] = system: Streptococcus pneumoniae; assay: Minimum inhibitory concentration against Streptococcus pneumoniae (GC 4565) was determined; type: functional
[26] = system: Streptococcus agalactiae; assay: Minimum inhibitory concentration against Streptococcus agalactiae (GC4564) was determined; type: functional
[27] = system: Staphylococcus aureus; assay: Minimum inhibitory concentration against Staphylococcus aureus smith; type: functional
[28] = system: Enterococcus faecium; assay: Minimum inhibitory concentration against Enterococcus faecium (GC 4557) was determined; type: functional
[29] = system: Enterococcus faecium; assay: Minimum inhibitory concentration against Enterococcus faecium (GC 4556) was determined; type: functional
[30] = system: Staphylococcus aureus; assay: Minimum inhibitory concentration against Staphylococcus aureus (GC 2216) was determined; type: functional
[31] = system: Enterococcus faecalis; assay: Minimum inhibitory concentration against Enterococcus faecalis (GC 3059) was determined; type: functional
[32] = system: Enterococcus faecalis; assay: Minimum inhibitory concentration against Enterococcus faecalis (GC 2691) was determined; type: functional
[33] = system: Staphylococcus aureus; assay: Minimum inhibitory concentration against Staphylococcus aureus (GC 1131) was determined; type: functional
[34] = system: Streptococcus pneumoniae; assay: Minimum inhibitory concentration against Streptococcus pneumoniae (GC 6242) was determined; type: functional
[35] = system: Mus musculus; assay: In vivo activity against Staphylococcus aureus smith was determined after iv administration in mice; type: functional
[36] = system: Enterococcus faecalis; assay: Minimum inhibitory concentration against Enterococcus faecalis (GC 6189) was determined; type: functional
[37] = system: Staphylococcus haemolyticus; assay: Minimum inhibitory concentration against Staphylococcus haemolyticus (GC 4546) was determined
[38] = system: Staphylococcus aureus; assay: Minimum inhibitory concentration against Staphylococcus aureus (GC 4541 was determined; type: functional
[39] = system: Enterococcus faecalis; assay: Minimum inhibitory concentration against Enterococcus faecalis (GC 4554) was determined; type: functional
[40] = system: Enterococcus faecalis; assay: Minimum inhibitory concentration against Enterococcus faecalis (GC 4555) was determined; type: functional
[41] = system: Enterococcus faecalis; assay: Minimum inhibitory concentration against Enterococcus faecalis (GC 2242) was determined; type: functional
[42] = system: Staphylococcus aureus; assay: Minimum inhibitory concentration against Staphylococcus aureus (GC 3051) was determined; type: functional

MIC [1]: ≤ 0.06 µg/mL | MIC [2]: ≤ 0.06 µg/mL | MIC [3]: 2 µg/mL (≈ 1.38 µM) | MIC [4]: 2 µg/mL (≈ 1.38 µM) | MIC [5]: > 64 µg/mL | MIC [6]: 2 µg/mL (≈ 1.38 µM) | MIC [7]: > 64 µg/mL | MIC [8]: 0.25 µg/mL (≈ 0.172 µM) | MIC [9]: 0.12 µg/mL (≈ 0.0827 µM) | MIC [10]: 0.25 µg/mL (≈ 0.172 µM) | MIC [11]: 0.5 µg/mL (≈ 0.344 µM) | MIC [12]: 0.5 µg/mL (≈ 0.344 µM) | MIC [13]: 32 µg/mL (≈ 22 µM) | MIC [14]: 1 µg/mL (≈ 0.689 µM) | MIC [15]: 32 µg/mL (≈ 22 µM) | MIC [16]: 0.25 µg/mL (≈ 0.172 µM) | MIC [17]: 0.25 µg/mL (≈ 0.172 µM) | MIC [18]: 64 µg/mL (≈ 44.1 µM) | MIC [19]: 0.5 µg/mL (≈ 0.344 µM) | MIC [20]: ≤ 0.06 µg/mL | MIC [21]: 1 µg/mL (≈ 0.689 µM) | MIC [22]: 2 µg/mL (≈ 1.38 µM) | MIC [23]: 1 µg/mL (≈ 0.689 µM) | MIC [24]: 0.12 µg/mL (≈ 0.0827 µM) | MIC [25]: ≤ 0.06 µg/mL | MIC [26]: ≤ 0.06 µg/mL | MIC [27]: 0.5 µg/mL (≈ 0.344 µM) | MIC [28]: 1 µg/mL (≈ 0.689 µM) | MIC [29]: 2 µg/mL (≈ 1.38 µM) | MIC [30]: 1 µg/mL (≈ 0.689 µM) | MIC [31]: 2 µg/mL (≈ 1.38 µM) | MIC [32]: 2 µg/mL (≈ 1.38 µM) | MIC [33]: 0.5 µg/mL (≈ 0.344 µM) | MIC [34]: ≤ 0.06 µg/mL | MIC [36]: 1 µg/mL (≈ 0.689 µM) | MIC [38]: 0.5 µg/mL (≈ 0.344 µM) | MIC [39]: 2 µg/mL (≈ 1.38 µM) | MIC [40]: 2 µg/mL (≈ 1.38 µM) | MIC [41]: 2 µg/mL (≈ 1.38 µM) | MIC [42]: 1 µg/mL (≈ 0.689 µM)
SMILES: COc1ccc2cc(CO[C@H]3[C@H](O)[C@H](O)[C@@H](O[C@H]4[C@H](O)[C@H](O)[C@@H](Oc5ccc(C[C@H]6NC(=O)[C@H]([C@@H](C)c7ccccc7)NC(=O)CNC(=O)[C@H](CO)NC(=O)[C@@H]([C@@H](O)[C@@H]7CN=C(N)N7[C@H]7O[C@H](O)[C@@H](O)[C@H](O)[C@@H]7O)NC(=O)[C@H]([C@@H](O)[C@@H]7CN=C(N)N7)NC6=O)cc5)O[C@@H]4CO)O[C@@H]3CO)ccc2c1
ED50 ([35]; Mus musculus, iv, read-out: ED50): 0.06 mg/kg | MIC [37]: 0.25 µg/mL (≈ 0.172 µM)

MIC [1]: 8 µg/mL (≈ 5.51 µM) | MIC [2]: 8 µg/mL (≈ 5.51 µM) | MIC [3]: 8 µg/mL (≈ 5.51 µM) | MIC [4]: 8 µg/mL (≈ 5.51 µM) | MIC [5]: > 64 µg/mL | MIC [6]: 8 µg/mL (≈ 5.51 µM) | MIC [7]: 0.12 µg/mL (≈ 0.0827 µM) | MIC [8]: 2 µg/mL (≈ 1.38 µM) | MIC [9]: 0.5 µg/mL (≈ 0.344 µM) | MIC [10]: > 64 µg/mL | MIC [11]: 1 µg/mL (≈ 0.689 µM) | MIC [12]: 1 µg/mL (≈ 0.689 µM) | MIC [13]: > 64 µg/mL | MIC [14]: 2 µg/mL (≈ 1.38 µM) | MIC [15]: 1 µg/mL (≈ 0.689 µM) | MIC [16]: 0.5 µg/mL (≈ 0.344 µM) | MIC [17]: 2 µg/mL (≈ 1.38 µM) | MIC [18]: > 64 µg/mL | MIC [19]: 1 µg/mL (≈ 0.689 µM) | MIC [20]: 2 µg/mL (≈ 1.38 µM) | MIC [21]: 64 µg/mL (≈ 44.1 µM) | MIC [22]: 2 µg/mL (≈ 1.38 µM) | MIC [23]: 2 µg/mL (≈ 1.38 µM) | MIC [24]: 1 µg/mL (≈ 0.689 µM) | MIC [25]: 0.5 µg/mL (≈ 0.344 µM) | MIC [26]: 0.25 µg/mL (≈ 0.172 µM) | MIC [27]: 1 µg/mL (≈ 0.689 µM) | MIC [28]: 8 µg/mL (≈ 5.51 µM) | MIC [29]: 8 µg/mL (≈ 5.51 µM) | MIC [30]: 2 µg/mL (≈ 1.38 µM) | MIC [31]: 4 µg/mL (≈ 2.76 µM) | MIC [32]: 0.25 µg/mL (≈ 0.172 µM) | MIC [33]: 2 µg/mL (≈ 1.38 µM) | MIC [34]: ≤ 0.06 µg/mL | MIC [36]: 4 µg/mL (≈ 2.76 µM) | MIC [38]: 1 µg/mL (≈ 0.689 µM) | MIC [39]: 8 µg/mL (≈ 5.51 µM) | MIC [40]: 8 µg/mL (≈ 5.51 µM) | MIC [41]: 8 µg/mL (≈ 5.51 µM) | MIC [42]: 0.12 µg/mL (≈ 0.0827 µM)
SMILES: COc1ccc2cc(COC[C@H]3O[C@H](O[C@H]4[C@H](O)[C@H](O)[C@@H](Oc5ccc(C[C@H]6NC(=O)[C@H]([C@@H](C)c7ccccc7)NC(=O)CNC(=O)[C@H](CO)NC(=O)[C@@H]([C@@H](O)[C@@H]7CN=C(N)N7[C@H]7O[C@H](O)[C@@H](O)[C@H](O)[C@@H]7O)NC(=O)[C@H]([C@@H](O)[C@@H]7CN=C(N)N7)NC6=O)cc5)O[C@@H]4CO)[C@@H](O)[C@@H](O)[C@@H]3O)ccc2c1
ED50 [35]: 0.12 mg/kg | MIC [37]: 1 µg/mL (≈ 0.689 µM)
